pEC50: −log10 of the molar value.
target: T1, human thyroid receptor beta ligand-binding domain (THR-beta) (Homo sapiens, UniProt P10828); assay: THR Biochemical Assay (Assay 1): TR-FRET thyroid receptor beta coactivator assay; details: TR-FRET SRC2-2 coactivator recruitment, GST-tagged THR-beta LBD 1 nM, 1 hr at rt; read-out: Assay 1 (EC50, THR-beta agonist activity)
T1 sequence (P10828 217-461 limits assumed): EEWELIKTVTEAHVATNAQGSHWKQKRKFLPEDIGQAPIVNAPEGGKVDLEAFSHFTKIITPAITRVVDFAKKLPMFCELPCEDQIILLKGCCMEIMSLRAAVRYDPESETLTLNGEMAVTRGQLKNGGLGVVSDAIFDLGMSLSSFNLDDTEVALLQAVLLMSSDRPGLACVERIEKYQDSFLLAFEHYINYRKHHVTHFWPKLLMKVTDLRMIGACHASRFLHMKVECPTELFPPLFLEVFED
Source text: THR Biochemical Assay (Assay 1)
The TR-FRET thyroid receptor beta coactivator assay is to be used. The assay uses a terbium-labeled anti-GST antibody, a glutathione-S-transferase (GST) tagged human thyroid receptor, beta or alpha, ligand-binding domain (LBD), and a fluorescein labeled SRC2-2 coactivator peptide. The antibody interacts with the LBD, where the agonist will also bind, resulting in increased affinity for the SRC2-2 coactivator peptide causing energy transfer of the acceptor fluorophore and a FRET emission shift from 495 to 520 nm. The energy transfer is detected as an increase in the fluorescence emission of the fluorescein acceptor, and a decrease in the fluorescence emission of the terbium donor. The assay is to be performed in a 384-well black plate in a final volume of 20 μL. Serial dilution of various test agonists will be performed in DMSO (1% final DMSO concentration) and added to the test plate. Thyroid receptor beta LBD will usually be added to the plate at a final concentration of 1 nM, followed by the mixture of the fluorescein labeled SRC2-2 coactivator peptide, and the terbium-labeled anti-GST antibody at final concentrations of 200 nM and 2 nM respectively. The assay will often be incubated for 1 hr at rt protected from light. The TR-FRET will then be measured on a Victor multilabel reader (Perkin Elmer) using an excitation wavelength of 340 nm with emission filters of 495 nm and 520 nm. The assay will be quantified by expressing a ratio (520:495) of the intensities, and the resulting activation curves; EC50 values are to be generated using a sigmoidal dose response (variable slope) equation in GraphPad™ Prism 8.0.

First: CC1CCc2c(Oc3c(Cl)cc(-n4nc(N)c(=O)[nH]c4=O)cc3Cl)ccc(=O)n21 (single isomer, unassigned) [Example 37, 6-amino-2-(3,5-dichloro-4-((3-methyl-5-oxo-1,2,3,5-tetrahydroindolizin-8-yl)oxy)phenyl)-1,2,4-triazine-3,5(2H,4H)-dione]
Second: Nc1nn(-c2cc(Cl)c(Oc3ccc(=O)n(C4CC4)c3)c(Cl)c2)c(=O)[nH]c1=O [Example 31, 6-amino-2-(3,5-dichloro-4-((1-cyclopropyl-6-oxo-1,6-dihydropyridin-3-yl)oxy)phenyl)-1,2,4-triazine-3,5(2H,4H)-dione]
The pEC50 of the first is higher: over 7.30 for the first, 6.60 to 7.30 for the second. The first is the more potent here.

Compared with `CC1CCc2c(Oc3c(Cl)cc(-n4nc(N)c(=O)[nH]c4=O)cc3Cl)ccc(=O)n21` (single isomer, unassigned) [Example 38, 6-amino-2-(3,5-dichloro-4-((3-methyl-5-oxo-1,2,3,5-tetrahydroindolizin-8-yl)oxy)phenyl)-1,2,4-triazine-3,5(2H,4H)-dione], `CC1CCc2c(Oc3c(Cl)cc(-n4nc(N)c(=O)[nH]c4=O)cc3Cl)c[nH]c(=O)c21` (centres unmarked) [Example 15, 6-amino-2-[3,5-dichloro-4-[(7-methyl-1-oxo-2,5,6,7-tetrahydrocyclopenta[c]pyridin-4-yl)oxy]phenyl]-1,2,4-triazine-3,5-dione] is lower in pEC50: 6.60 to 7.30 for the first, 6.00 to 6.60 for the second. The first is the more potent here.

First: CC(C)c1cc(Oc2c(Cl)cc(-n3nc(N)c(=O)[nH]c3=O)cc2Cl)c[nH]c1=O [Compound 1, 6-amino-2-(3,5-dichloro-4-((5-isopropyl-6-oxo-1,6-dihydropyridin-3-yl)oxy)phenyl)-1,2,4-triazine-3,5(2H,4H)-dione]
Second: CN(C)c1cc(Oc2c(Cl)cc(-n3nc(N)c(=O)[nH]c3=O)cc2Cl)c[nH]c1=O [Compound 13, 6-amino-2-(3,5-dichloro-4-((5-(dimethylamino)-6-oxo-1,6-dihydropyridin-3-yl)oxy)phenyl)-1,2,4-triazine-3,5(2H,4H)-dione]
The pEC50 of the first is higher: over 7.30 for the first, 6.00 to 6.60 for the second. The first is the more potent here.

`CC(C)c1cc(Oc2c(Cl)cc(-n3ncc(=O)[nH]c3=O)cc2Cl)c[nH]c1=O` [Compound 3, 2-(3,5-dichloro-4-((5-isopropyl-6-oxo-1,6-dihydropyridin-3-yl)oxy)phenyl)-1,2,4-triazine-3,5(2H,4H)-dione] and `CC(C)c1cc(Oc2c(Cl)cc(-c3nn(C)c(=O)[nH]c3=O)cc2Cl)c[nH]c1=O` [Compound 10, 6-(3,5-dichloro-4-((5-isopropyl-6-oxo-1,6-dihydropyridin-3-yl)oxy)phenyl)-2-methyl-1,2,4-triazine-3,5(2H,4H)-dione] fall in the same range of pEC50: 6.60 to 7.30 for the first, 6.60 to 7.30 for the second.

First: CC(C)c1cc(Oc2c(Cl)cc(NC(=O)C(=O)O)cc2Cl)c[nH]c1=O [Compound 4, 2-((3,5-dichloro-4-((5-isopropyl-6-oxo-1,6-dihydropyridin-3-yl)oxy)phenyl)amino)-2-oxoacetic acid]
Second: CC(C)c1cc(Oc2c(Cl)cc(NC(=O)c3noc(=O)[nH]3)cc2Cl)c[nH]c1=O [Compound 5, N-(3,5-dichloro-4-((5-isopropyl-6-oxo-1,6-dihydropyridin-3-yl)oxy)phenyl)-5-oxo-4,5-dihydro-1,2,4-oxadiazole-3-carboxamide]
The pEC50 of the first is lower: 6.60 to 7.30 for the first, over 7.30 for the second. The second is the more potent here.

First: CC(C)n1cc(Oc2c(Cl)cc(NC(=O)c3noc(=O)[nH]3)cc2Cl)ccc1=O [Compound 6, N-(3,5-dichloro-4-((1-isopropyl-6-oxo-1,6-dihydropyridin-3-yl)oxy)phenyl)-5-oxo-4,5-dihydro-1,2,4-oxadiazole-3-carboxamide]
Second: CNC(=O)c1cc(Oc2c(Cl)cc(NC(=O)c3noc(=O)[nH]3)cc2Cl)c[nH]c1=O [Example 28, N-(3,5-dichloro-4-((5-(methylcarbamoyl)-6-oxo-1,6-dihydropyridin-3-yl)oxy)phenyl)-5-oxo-4,5-dihydro-1,2,4-oxadiazole-3-carboxamide]
The pEC50 of the first is higher: 6.60 to 7.30 for the first, 4.60 to 6.00 for the second. The first is the more potent here.

Compared with `CC(C)n1cc(Oc2c(Cl)cc(-n3nc(C#N)c(=O)[nH]c3=O)cc2Cl)ccc1=O` [Compound 7, 2-(3,5-dichloro-4-((1-isopropyl-6-oxo-1,6-dihydropyridin-3-yl)oxy)phenyl)-3,5-dioxo-2,3,4,5-tetrahydro-1,2,4-triazine-6-carbonitrile], `CC(C)n1cc(Oc2c(Cl)cc(-n3nc(N)c(=O)[nH]c3=O)cc2Cl)ccc1=O` [Compound 8, 6-amino-2-(3,5-dichloro-4-((1-isopropyl-6-oxo-1,6-dihydropyridin-3-yl)oxy)phenyl)-1,2,4-triazine-3,5(2H,4H)-dione] is lower in pEC50: over 7.30 for the first, 6.60 to 7.30 for the second. The first is the more potent here.

First: Cc1cc(-n2nc(N)c(=O)[nH]c2=O)cc(C)c1Oc1c[nH]c(=O)c(C(C)C)c1 [Compound 9, 6-amino-2-(4-((5-isopropyl-6-oxo-1,6-dihydropyridin-3-yl)oxy)-3,5-dimethylphenyl)-1,2,4-triazine-3,5(2H,4H)-dione]
Second: CC(C)c1cc(Oc2c(Cl)cc(-n3nc(N)c(=O)[nH]c3=O)cc2Cl)cn(C)c1=O [Example 14, 6-amino-2-(3,5-dichloro-4-((5-isopropyl-1-methyl-6-oxo-1,6-dihydropyridin-3-yl)oxy)phenyl)-1,2,4-triazine-3,5(2H,4H)-dione]
The pEC50 of the first is lower: 6.60 to 7.30 for the first, over 7.30 for the second.

`Cc1c(Oc2c(Cl)cc(-n3nc(N)c(=O)[nH]c3=O)cc2Cl)c[nH]c(=O)c1C(C)C` [Example 18, 6-amino-2-(3,5-dichloro-4-((5-isopropyl-4-methyl-6-oxo-1,6-dihydropyridin-3-yl)oxy)phenyl)-1,2,4-triazine-3,5(2H,4H)-dione] and `Cc1cc(Oc2c(Cl)cc(-n3nc(N)c(=O)[nH]c3=O)cc2Cl)cn(C(C)C)c1=O` [Example 19, 6-amino-2-(3,5-dichloro-4-((1-isopropyl-5-methyl-6-oxo-1,6-dihydropyridin-3-yl)oxy)phenyl)-1,2,4-triazine-3,5(2H,4H)-dione] cannot be ordered by pEC50: over 7.30 for the first, over 7.30 for the second.

`CC(C)n1cc(Oc2c(Cl)cc(-n3nc(N)c(=O)[nH]c3=O)cc2Cl)cc(F)c1=O` [Example 22, 6-amino-2-(3,5-dichloro-4-((5-fluoro-1-isopropyl-6-oxo-1,6-dihydropyridin-3-yl)oxy)phenyl)-1,2,4-triazine-3,5(2H,4H)-dione] and `CC(C)n1cc(Oc2c(Cl)cc(-n3nc(N)c(=O)[nH]c3=O)cc2Cl)cc(Cl)c1=O` [Example 23, 6-amino-2-(3,5-dichloro-4-((5-chloro-1-isopropyl-6-oxo-1,6-dihydropyridin-3-yl)oxy)phenyl)-1,2,4-triazine-3,5(2H,4H)-dione] fall in the same range of pEC50: 6.60 to 7.30 for the first, 6.60 to 7.30 for the second.

`Nc1nn(-c2cc(Cl)c(Oc3c[nH]c(=O)c(C4CCC4)c3)c(Cl)c2)c(=O)[nH]c1=O` [Example 24, 6-amino-2-(3,5-dichloro-4-((5-cyclobutyl-6-oxo-1,6-dihydropyridin-3-yl)oxy)phenyl)-1,2,4-triazine-3,5(2H,4H)-dione] and `Nc1nn(-c2cc(Cl)c(Oc3ccc(=O)n(C4CCC4)c3)c(Cl)c2)c(=O)[nH]c1=O` [Example 30, 6-amino-2-(3,5-dichloro-4-((1-cyclobutyl-6-oxo-1,6-dihydropyridin-3-yl)oxy)phenyl)-1,2,4-triazine-3,5(2H,4H)-dione] cannot be ordered by pEC50: over 7.30 for the first, over 7.30 for the second.

Work on `Nc1nn(-c2cc(Cl)c(Oc3c[nH]c(=O)c(C(=O)NC4CC(F)(F)C4)c3)c(Cl)c2)c(=O)[nH]c1=O` [Example 27, 5-(4-(6-Amino-3,5-dioxo-4,5-dihydro-1,2,4-triazin-2(3H)-yl)-2,6-dichlorophenoxy)-N-(3,3-difluorocyclobutyl)-2-oxo-1,2-dihydropyridine-3-carboxamide] yielded a pEC50 of 6.00 to 6.60.
